The values that follow come from patent US20120184006A1, “Reductase Enzymes” (UTAH STATE UNIVERSITY, priority 2011, published 2012).

Experiment [1] concerns FACoAR from M. aquaeolei VT8. The experiment is described as follows: Initial activity assay, products identified by TLC and GC. The format is biochemical, Marinobacter aquaeolei VT8. The note with it: 200 μM substrate, NADPH. On the procedure: Initial activity assays were conducted using thin layer chromatography (TLC) and a gas chromatography (GC) assay similar to that described previously (29). To test activity, 0.3 mg of protein was added to a reaction vessel along with 200 μM palmitoleyl-CoA and 800 μM NADPH, NADH, NADP^+, NAD^+ in reaction buffer containing 20 mM Tris-HCl pH 7.0 and 50 mM NaCl. Reactions were allowed to proceed for 1 hr before quenching by the addition of 2 mL of hexane. The hexane water mixture was vortexed vigorously for 30 seconds before centrifuging to separate phases. The hexane phase was removed to a clean container and the solvent was removed under a stream of argon. […] The TLC plate was developed in a 2:15:90 volumetric ratio of glacial acetic acid:ethyl ether:hexane. After development, visualization was performed in a sealed jar with iodine crystals for 10 min. The TLC results were verified by GC analysis of the sample prepared in the same way and compared to retention times of known standards.

Experiment [2] addresses T1, fatty acyl-CoA reductase (FACoAR) from M. aquaeolei VT8 (Marinobacter nauticus (Marinobacter aquaeolei), UniProt A1U3L3).
T1 sequence (A1U3L3 1-661): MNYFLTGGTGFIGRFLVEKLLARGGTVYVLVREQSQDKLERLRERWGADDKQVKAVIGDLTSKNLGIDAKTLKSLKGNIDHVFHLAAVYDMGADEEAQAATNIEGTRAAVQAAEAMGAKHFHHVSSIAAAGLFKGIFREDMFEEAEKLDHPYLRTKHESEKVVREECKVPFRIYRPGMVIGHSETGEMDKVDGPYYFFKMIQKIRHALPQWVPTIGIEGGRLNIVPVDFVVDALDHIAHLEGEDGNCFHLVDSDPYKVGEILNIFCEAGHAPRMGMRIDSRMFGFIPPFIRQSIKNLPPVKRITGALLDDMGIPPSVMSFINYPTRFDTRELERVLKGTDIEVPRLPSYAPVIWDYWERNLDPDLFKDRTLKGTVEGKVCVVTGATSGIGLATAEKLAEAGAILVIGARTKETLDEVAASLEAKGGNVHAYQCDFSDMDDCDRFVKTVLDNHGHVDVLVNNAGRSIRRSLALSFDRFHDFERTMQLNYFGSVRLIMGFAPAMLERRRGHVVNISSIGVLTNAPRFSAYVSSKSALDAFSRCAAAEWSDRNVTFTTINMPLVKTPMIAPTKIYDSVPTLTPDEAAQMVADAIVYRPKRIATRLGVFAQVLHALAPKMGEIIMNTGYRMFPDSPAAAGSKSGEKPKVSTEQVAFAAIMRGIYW
The experiment is described as follows: Continuous spectrophotometric DTNB assay (release of free CoA). It is filed as biochemical. The settings on record: for Rate of Reaction (nmol NTB^2− min^−1 mg protein^−1): 6 μM of the respective CoA as substrate; for % Specific Activity of Palmitoyl-CoA: percent of the specific activity of palmitoyl-CoA, 6 μM substrate. Here is the method:
Buffers and solutions were prepared as described above for NADPH assays. Each assay was conducted by adding 75 μL of the 2 mg/mL NADPH stock solution in buffer, 58 μg of protein, and 10 μL of a 10 mg/mL solution of DTNB in DMSO, varying concentrations of acyl-CoA and buffer to bring the volume to 1 mL. Reduction of acyl-CoA substrate was monitored by following the increase of the 2-nitro-5-thiobenzoate (NTB^2−) dianion concentration at 412 nm. […] These initial rates were used to calculate the apparent K, and Vmax values using the Igor Pro (Wavemetrics, Lake Oswego, Oreg.) software package fitting the initial rates to the Hill equation (Equation 1) where v is the initial velocity, Vmax is the maximum calculated velocity, [S]^n is the concentration of substrate and n is the Hill coefficient, K0.5^n is the approximation of Km or the approximate substrate concentration at which half of Vmax is obtained at a specific value of the Hill coefficient n. In the case of enzyme inhibition, a modified version of the Hill equation allowing for cooperative inhibition (Equation 2) where all of the coefficients are defined as for the Hill equation and the additional [i]^n is the concentration of inhibitor and n is the Hill coefficient. The Ki^n is the approximate concentration of inhibitor it takes to double the K0.5 at a specific value of the Hill coefficient n.

For experiment [3], the target named is T1, fatty acyl-CoA reductase (FACoAR) from M. aquaeolei VT8. The experiment is described as follows: Palmitoyl CoA inhibition of fatty aldehyde (cis-11-hexadecenal) reduction. It is filed as biochemical. The note with it: competitive inhibition of cis-11-hexadecenal reduction; 0, 1, 2, 4 μM inhibitor; fit to equation 2; read-out: apparent Ki. On the procedure: The (◯) denote assays performed with 0 μM palmitoyl CoA, ([…]) denote assays performed with 1 palmitoyl CoA, (□) denote assays performed with 2 μM palmitoyl CoA, and (Δ) denote assays performed with 4 μM palmitoyl CoA. Specific activities are plotted in units of nmol NADP^+ min^−1 mg protein^−1. All assays were conducted in triplicate and are shown with error bars indicating SEM fit to equation 1 in the materials and methods section. The apparent Ki was determined by fitting all four data sets to equation 2 in the materials and methods.
All assays were conducted in a total volume of 1 mL. A buffer containing 50 mM NaCl, 20 mM Tris-HCl pH 7.0, and 0.5 mg/mL BSA was prepared along with a 1 mM stock of aldehyde dissolved in dimethyl sulfoxide (DMSO) or a 0.1 mM stock of the acyl-CoA, and 2.0 trig/mL NADPH. […] Each sample was continuously monitored for the decrease of NADPH at 340 nm on a Varian 50 Bio UV-visible spectrophotometer (Walnut Creek, Calif.). Initial rates were calculated in Excel using the linear initial rates of reaction obtained from the spectrophotometric assays by obtaining the slope from the best. […]
Buffers and solutions were prepared as described above for NADPH assays. […] Reduction of acyl-CoA substrate was monitored by following the increase of the 2-nitro-5-thiobenzoate (NTB^2−) dianion concentration at 412 nm. […]

The target is the same in experiment [4]. Nature of the experiment: Continuous spectrophotometric NADPH assay (decrease of NADPH at 340 nm). It is filed as biochemical. The note with it: FIG. 5, NADPH assay, acyl-CoA substrate. Here is the method: All assays were conducted in a total volume of 1 mL. A buffer containing 50 mM NaCl, 20 mM Tris-HCl pH 7.0, and 0.5 mg/mL BSA was prepared along with a 1 mM stock of aldehyde dissolved in dimethyl sulfoxide (DMSO) or a 0.1 mM stock of the acyl-CoA, and […] NADPH. All components including protein were degassed in sealed vials and placed under an argon atmosphere. NADPH was degassed as the solid prior to the addition of degassed buffer. Each assay was conducted by adding 75 μL of the NADPH stock, 58 μg protein for acyl-CoA assays or 15 μg protein for aldehyde assays, varying concentrations of aldehyde or acyl-CoA and buffer to bring the final volume to 1 mL. Each sample was continuously monitored for the decrease of NADPH at 340 nm on a Varian 50 Bio UV-visible spectrophotometer (Walnut Creek, Calif.). Initial rates were calculated in Excel using the linear initial rates of reaction obtained from the spectrophotometric assays by obtaining the slope from the best. In line and calculating nmol of NADPH oxidized per second. (Microsoft, Redmond, Wash.). These initial rates were used to calculate Km and Vmax values using the Igor Pro software package (Wavemetrics, Lake Oswego, Oreg.) fitting the initial rates to the Hill equation (31). NADPH specific activity assays were conducted identically as described above using a fixed 60 μM concentration of the various aldehyde substrates or 6 μM of the various acyl-CoA substrates.

In the case of `CCCCCC/C=C\CCCCCCCC(=O)SCCNC(=O)CCNC(=O)[C@H](O)C(C)(C)COP(=O)(O)OP(=O)(O)OC[C@H]1O[C@@H](n2cnc3c(N)ncnc32)[C@H](O)[C@@H]1OP(=O)(O)O` [Palmitoleyl-CoA], the “detectable product of reduction” value in experiment [1] is recorded as “palmitoleyl alcohol”. Also, in experiment [2], the “Rate of Reaction (nmol NTB^2− min^−1 mg protein^−1)” value is reported as 53.7 ± 1.1 nmol NTB^2− min^−1 mg protein^−1 and the “% Specific Activity of Palmitoyl-CoA” value came out at 93%.

On to `CCCCCCCCCCCCCCCC(=O)SCCNC(=O)CCNC(=O)[C@H](O)C(C)(C)COP(=O)(O)OP(=O)(O)OC[C@H]1O[C@@H](n2cnc3c(N)ncnc32)[C@H](O)[C@@H]1OP(=O)(O)O` [Palmitoyl-CoA], for which the Ki in experiment [3] was 1900 ± 260 nM. Further, the “n (Hill coefficient)” value in experiment [4] turned out to be 2.6±0.3. Moreover, the Vmax in experiment [4] (Hill fit) was 197±8 nmol NADP^+ min^−1 mg of protein^−1. In experiment [2], the “Vmax when CoA release was monitored” value was ~180 nmol/min/mg, the “maximal specific activity (CoA release)” value is 115 nmol of NTB/min/mg protein, the “Rate of Reaction (nmol NTB^2− min^−1 mg protein^−1)” value is listed as 54.7 ± 4.7 nmol NTB^2− min^−1 mg protein^−1 and the “% Specific Activity of Palmitoyl-CoA” value turned out to be 100%. The “n (Hill coefficient)” value in experiment [2] (FIG. 5, DTNB assay) is recorded as 2.8±0.7. For the same compound, in experiment [2] (FIG. 5, DTNB assay, release of free CoA, Hill fit, substrate), the Vmax was 115±7 nmol NTB^−2 min^−1 mg of protein^−1.
